Assay: Fortification of water: iron content on storage, ICP-AES (Example 7)
Format: physicochemical
Method: Processed water enriched with 20-30 ppm of sodium and potassium (600 mL) was iron fortified by the addition of different iron ingredients as reported in Table 10. The amounts were chosen to provide approximately 2.1 mg of iron per litre of water. The water was stored in an oven at 40° C. for 18 weeks. The iron content was measured for each sample through ICP-AES.

With Ferrous sulfate the “Iron content, Week 1” value (processed water fortified at approx. 2.1 mg iron per litre, stored at 40° C., ICP-AES, week 1) was 0 (Precipitate), the “Iron content, Week 18” value (processed water fortified at approx. 2.1 mg iron per litre, stored at 40° C., ICP-AES, week 18) was 0 (Precipitate) and the “Behaviour in fortified water (precipitation / remaining in solution)” value (processed water stored at 40° C., up to 18 weeks) was “precipitates almost instantaneously”.

Reference: patent US10617140B2, “Iron-fortified food composition” (NESTEC S.A., priority 2015, dated 2020)
